≈ marks a conversion by molar mass, not a printed value.
What was measured:
Assay type in all cases: functional
[1] = test system: Micrococcus luteus; assay: Antibacterial activity against Micrococcus luteus MTCC 1538 at 1000 ug/ml after 18 hr by cup-plate method; conditions: MTCC 1538, 18 h, read-out: DIZ
[2] = test system: Penicillium chrysogenum; assay: Antifungal activity against Penicillium chrysogenum MTCC 161 at 1000 ug/ml after 18 hr by cup-plate method; conditions: MTCC 161, 18 h, read-out: DIZ
[3] = test system: Bacillus pumilus; assay: Antibacterial activity against Bacillus pumilus MTCC 1456 at 1000 ug/ml after 18 hr by cup-plate method; conditions: MTCC 1456, 18 h, read-out: DIZ
[4] = test system: Aspergillus niger; assay: Antifungal activity against Aspergillus niger MTCC 2546 at 100 ug/ml after 18 hr by cup-plate method; conditions: MTCC 2546, 18 h, read-out: DIZ
[5] = test system: Escherichia coli; assay: Antibacterial activity against Escherichia coli MTCC 1573 at 1000 ug/ml after 18 hr by cup-plate method; conditions: MTCC 1573, 18 h, read-out: DIZ
[6] = test system: Aspergillus niger; assay: Antifungal activity against Aspergillus niger MTCC 2546 at 500 ug/ml after 18 hr by cup-plate method; conditions: MTCC 2546, 18 h, read-out: DIZ
[7] = test system: Pseudomonas aeruginosa; assay: Antibacterial activity against Pseudomonas aeruginosa MTCC 424 at 100 ug/ml after 18 hr by cup-plate method; conditions: MTCC 424, 18 h, read-out: DIZ
[8] = test system: Staphylococcus aureus; assay: Antibacterial activity against Staphylococcus aureus MTCC 1430 at 1000 ug/ml after 18 hr by cup-plate method; conditions: MTCC 1430, 18 h, read-out: DIZ
[9] = test system: Bacillus pumilus; assay: Antibacterial activity against Bacillus pumilus MTCC 1456 after 24 hr by broth dilution method; conditions: MTCC 1456, 24 h
[10] = test system: Pseudomonas fluorescens; assay: Antibacterial activity against Pseudomonas fluorescens MTCC 2421 at 100 ug/ml after 18 hr by cup-plate method; conditions: MTCC 2421, 18 h, read-out: DIZ
[11] = test system: Bacillus pumilus; assay: Antibacterial activity against Bacillus pumilus MTCC 1456 at 1500 ug/ml after 18 hr by cup-plate method; conditions: MTCC 1456, 18 h, read-out: DIZ
[12] = test system: Aspergillus niger; assay: Antifungal activity against Aspergillus niger MTCC 2546 at 200 ug/ml after 18 hr by cup-plate method; conditions: MTCC 2546, 18 h, read-out: DIZ
[13] = test system: Staphylococcus aureus; assay: Antibacterial activity against Staphylococcus aureus MTCC 1430 after 24 hr by broth dilution method; conditions: MTCC 1430, 24 h
[14] = test system: Escherichia coli; assay: Antibacterial activity against Escherichia coli MTCC 1573 at 500 ug/ml after 18 hr by cup-plate method; conditions: MTCC 1573, 18 h, read-out: DIZ
[15] = test system: Pseudomonas aeruginosa; assay: Antibacterial activity against Pseudomonas aeruginosa MTCC 424 at 500 ug/ml after 18 hr by cup-plate method; conditions: MTCC 424, 18 h, read-out: DIZ
[16] = test system: Bacillus pumilus; assay: Antibacterial activity against Bacillus pumilus MTCC 1456 at 500 ug/ml after 18 hr by cup-plate method; conditions: MTCC 1456, 18 h, read-out: DIZ
[17] = test system: Staphylococcus aureus; assay: Antibacterial activity against Staphylococcus aureus MTCC 1430 at 500 ug/ml after 18 hr by cup-plate method; conditions: MTCC 1430, 18 h, read-out: DIZ
[18] = test system: Pseudomonas aeruginosa; assay: Antibacterial activity against Pseudomonas aeruginosa MTCC 424 at 1500 ug/ml after 18 hr by cup-plate method; conditions: MTCC 424, 18 h, read-out: DIZ
[19] = test system: Bacillus subtilis; assay: Antibacterial activity against Bacillus subtilis MTCC 441 at 200 ug/ml after 18 hr by cup plate method; conditions: MTCC 441, 18 h, read-out: DIZ
[20] = test system: Micrococcus luteus; assay: Antibacterial activity against Micrococcus luteus MTCC 1538 at 200 ug/ml after 18 hr by cup-plate method; conditions: MTCC 1538, 18 h, read-out: DIZ
[21] = test system: Pseudomonas fluorescens; assay: Antibacterial activity against Pseudomonas fluorescens MTCC 2421 at 200 ug/ml after 18 hr by cup-plate method; conditions: MTCC 2421, 18 h, read-out: DIZ
[22] = test system: Micrococcus luteus; assay: Antibacterial activity against Micrococcus luteus MTCC 1538 at 500 ug/ml after 18 hr by cup-plate method; conditions: MTCC 1538, 18 h, read-out: DIZ
[23] = test system: Micrococcus luteus; assay: Antibacterial activity against Micrococcus luteus MTCC 1538 at 1500 ug/ml after 18 hr by cup-plate method; conditions: MTCC 1538, 18 h, read-out: DIZ
[24] = test system: Pseudomonas aeruginosa; assay: Antibacterial activity against Pseudomonas aeruginosa MTCC 424 after 24 hr by broth dilution method; conditions: MTCC 424, 24 h
[25] = test system: Escherichia coli; assay: Antibacterial activity against Escherichia coli MTCC 1573 at 100 ug/ml after 18 hr by cup-plate method; conditions: MTCC 1573, 18 h, read-out: DIZ
[26] = test system: Escherichia coli; assay: Antibacterial activity against Escherichia coli MTCC 1573 after 24 hr by broth dilution method; conditions: MTCC 1573, 24 h
[27] = test system: Aspergillus niger; assay: Antifungal activity against Aspergillus niger MTCC 2546 after 24 hr by broth dilution method; conditions: MTCC 2546, 24 h

In the case of Clc1ccc(/N=C/c2cccs2)cc1, the zone of inhibition at 1000 µg/mL [1] is reported as 20 mm, the zone of inhibition at 1000 µg/mL [2] is reported as 17 mm and the zone of inhibition at 1000 µg/mL [3] is reported as 18 mm. It also gave a zone of inhibition at 100 µg/mL [4] of 10 mm, a zone of inhibition at 1000 µg/mL [5] of 19 mm and a zone of inhibition at 500 µg/mL [6] of 12 mm. For the same compound, the zone of inhibition at 100 µg/mL [7] was 10 mm, the zone of inhibition at 1000 µg/mL [8] was 16 mm and the MIC [9] was 200 µg/mL (≈ 902 µM). It also gave a zone of inhibition at 100 µg/mL [10] of 11 mm, a zone of inhibition at 1500 µg/mL [11] of 20 mm and a zone of inhibition at 200 µg/mL [12] of 11 mm. The MIC [13] was 300 µg/mL (≈ 1350 µM), the zone of inhibition at 500 µg/mL [14] was 16 mm and the zone of inhibition at 500 µg/mL [15] was 16 mm. The zone of inhibition at 500 µg/mL [16] was 17 mm, the zone of inhibition at 500 µg/mL [17] was 15 mm and the zone of inhibition at 1500 µg/mL [18] was 19 mm. The zone of inhibition at 200 µg/mL [19] was 12 mm, the zone of inhibition at 200 µg/mL [20] was 15 mm and the zone of inhibition at 200 µg/mL [21] was 13 mm. It also gave a zone of inhibition at 500 µg/mL [22] of 18 mm, a zone of inhibition at 1500 µg/mL [23] of 24 mm and an MIC [24] of 300 µg/mL (≈ 1350 µM). For the same compound, the zone of inhibition at 100 µg/mL [25] was 13 mm, the MIC [26] was 200 µg/mL (≈ 902 µM) and the MIC [27] was 400 µg/mL (≈ 1800 µM).

Reference: ChEMBL document CHEMBL3045835, “Comparative study of conventional and microwave-assisted synthesis of some Schiff bases and their potential as antimicrobial agents” (2012)
